Consider nine compounds from patent publication US20160031935A1, “SMALL MOLECULE MODULATORS OF PCSK9 AND METHODS OF USE THEREOF” (ADAERATA, LIMITED PARTNERSHIP, priority 2013, published 2016).

One assay has as its system cell surface LDLR. As to the kind of experiment: FACS assay of LDLR at the HepG2 cell surface. The following applies: 10 μM, 24 h; LDLR positive HepG2 cells. The assay is classed as cell-based, human. The method, then: The ability of PCSK9 inhibitory compounds to prevent the activity of PCSK9 on LDLR at the cell surface was also measured by using flow cytometry analyses as described in Benjannet S. et al. J. Biol. Chem. 285: 40965-40978, 2010. The level of LDLR at the HepG2 cell surface was measured by using anti human LDLR antibody (1:100, mAb-C7, Santa Cruz Biotechnology) and a secondary Alexa Fluor 647 donkey anti-mouse (Molecular Probes) antibody. Viable cells (PI-negative) were then analyzed by FACS for both PI and Alexa Fluor 647 using the FACS BD LSR (BD Biosciences). Cell surface LDLR was reported relative to control (untreated cells). The inhibition of the PCSK9 function in these assays was detected by an increased number of positive cells which correlated with an increased expression of LDLR at the cell surface.
More particularly, Human hepatoblastoma HepG2 cells (4×10^5 cells/well) were seeded in 12 well plates (Greiner BioOne) in complete media and cultured for 20 hours, at 37° C., followed by a 1 hour wash in serum free media at 37° C. Next, the wash media was removed and the cells were incubated overnight (24 hours) with 0.9 ml/well incubation media containing compounds at 10 uM or DMSO control (0.4% final). After one rinse with buffer A followed by another rinse with EDTA solution (2.5 mM EDTA-2Na), the cells were detached by incubation in the presence of fresh EDTA solution (1 ml) at 37° C. for 20 minutes. All the steps following cell detachment were conducted on ice or 4° C. To terminate the detachment, the cells were transferred in a 15 ml tube containing 3 ml of buffer A and centrifuged immediately for 5 minutes at 900 rpm (100 g) (4° C.). The cells were then resuspended in 500 ul buffer A together with 1:250 human LDLR antibody and incubated on ice for 10 minutes. Cells were washed once with 5 ml buffer A, centrifuged for 5 minutes, resuspended in 500 ul buffer A containing 1:500 Alexa Fluor 647 secondary antibody and incubated on ice for 5 min. After the staining, cells were washed once with 5 ml buffer A, centrifuged for 5 minutes and resuspended in 300 ul buffer A containing 1.67 ug/ml propidium iodide. A fixed number (2,000 cells) of viable cells (propidium iodide negative) were then analyzed by FACS for Alexa Fluor 647 (cell surface LDLR) using a FACS-CyAn ADP flow cytometer (Beckman Coulter (DAKO)) and Summit software (Summit Software Inc.).
Human HepG2 cell line: ATCC, HB-8065 Seeding media: complete media—EMEM (high glucose+sodium pyruvate) (Wisent)+10% FBS Wash media: serum free media—EMEM (high glucose+sodium pyruvate) (Wisent) Incubation media with compounds: EMEM (high glucose+sodium pyruvate) (Wisent)+0.07% BSA (Sigma-Aldrich) BufferA: 1×D-PBS without calcium and magnesium (Wisent 311-425-CL)+0.5% BSA (Sigma A7409-50ml)+[…] Glucose (Wisent 609-036-EL). Primary antibody: human LDLR antibody, monoclonal Mouse IgG1 clone #472413 (MAB2148, R&D Systems) Secondary antibody: Alexa Fluor® 647 goat anti-mouse IgG (H+L)*2 mg/mL*(A21235, Molecular Probes) Propidium iodide: 1 mg/ml solution (P4864, Sigma)
On the technique in general: A flow cytometer gives signals particle by particle.

In another assay the target is T1, WT PCSK9(+V5) (Homo sapiens, UniProt Q8NBP7).
T1 construct: expressed in transfected cells
As to the kind of experiment: PCSK9 secretion assay: PCSK9 in media and cells by ELISA (media/cell ratio). In kind it is cell-based. The following applies: 10 μM; HepG2 cells stably expressing WT PCSK9(+V5), 24 h. As to the method:
In 12-well plates (Greiner BioOne™), HepG2 cells stably expressing PCSK9(+V5) were seeded at a density of 1×10^6/well in complete media and incubated for 20 hours, at 37° C. Cells were rinsed once with 2 ml/well of D-PBS (+Calcium, +Magnesium) (Wisent) followed by addition of 0.5 ml/well incubation media (+0.07% BSA) containing the inhibitory compounds at various concentrations (11, 33, 100 μM) or DMSO control (0.4% final) and overnight (24 hours) incubation. 24 hours-conditioned media was collected, centrifuged at 130×g for 5 minutes to remove cell debris, and the supernatant removed for PCSK9 quantification by ELISA (100 μl of 1:30 dilution). Cells were washed once with ice-cold D-PBS (+Calcium, +Magnesium) (Wisent), then lysed with 250 ul/well of radioimmunoprecipitation assay buffer (RIPA) (50 mM Tris-HCl, pH 7.8, 150 mM NaCl, 1% Nonident P-40, 0.5% sodium deoxycholate, 0.1% SDS) containing a mixture of protease inhibitors (Roche Applied Science) for 30 min on ice, and pelleted at 11,300×g for 5 minutes. Supernatant was removed for cellular PCSK9 quantification by ELISA (100 μl of 1:20 dilution) and total protein determination by the Bio-Rad™ DC Protein assay (Bio-Rad) (4 μl cell lysate in duplicate) (Dubuc G, Tremblay M, Pare G, Jacques H, Hamelin J, Benjannet S, Boulet L, Genest J, Bernier L, Seidah N G, Davignon J. 2010. A new method for measurement of total plasma PCSK9: clinical applications. J Lipid Res. 51:140-149). The ratio of PCSK9 concentration of media (M) over cells (C) was determined and compounds which decreased M/C by >30% were considered active.
HepG2 cells stably expressing WT PCSK9(+V5) were incubated overnight (24 hours) in the absence (DMSO) or presence of 10 μM, 100 μM or increasing concentrations (11, 33, 100 μM) of a tested compound. 24 hours-conditioned media was collected, centrifuged, and the supernatant removed for PCSK9 quantification by ELISA (100 μl of 1:30 dilution). Cells were lysed with 250 ul/well of radioimmunoprecipitation assay buffer (RIPA) (50 mM Tris-HCl, pH 7.8, 150 mM NaCl, 1% Nonident P-40, 0.5% sodium deoxycholate, 0.1% SDS) containing a mixture of protease inhibitors (Roche Applied Science), and pelleted at 11,300×g for 5 minutes. Supernatant was removed for cellular PCSK9 quantification by ELISA (100 μl of 1:20 dilution) and total protein determination by the Bio-Rad DC Protein assay (Bio-Rad) (Dubuc G, Tremblay M, Pare G, Jacques H, Hamelin J, Benjannet S, Boulet L, Genest J, Bernier L, Seidah N G, Davignon J. 2010. A new method for measurement of total plasma PCSK9: clinical applications. J Lipid Res. 51:140-149). Over 165 compounds were subjected to a first screen at 100 μM by PCSK9 secretion assay.

T1 sequence (Q8NBP7 153-692): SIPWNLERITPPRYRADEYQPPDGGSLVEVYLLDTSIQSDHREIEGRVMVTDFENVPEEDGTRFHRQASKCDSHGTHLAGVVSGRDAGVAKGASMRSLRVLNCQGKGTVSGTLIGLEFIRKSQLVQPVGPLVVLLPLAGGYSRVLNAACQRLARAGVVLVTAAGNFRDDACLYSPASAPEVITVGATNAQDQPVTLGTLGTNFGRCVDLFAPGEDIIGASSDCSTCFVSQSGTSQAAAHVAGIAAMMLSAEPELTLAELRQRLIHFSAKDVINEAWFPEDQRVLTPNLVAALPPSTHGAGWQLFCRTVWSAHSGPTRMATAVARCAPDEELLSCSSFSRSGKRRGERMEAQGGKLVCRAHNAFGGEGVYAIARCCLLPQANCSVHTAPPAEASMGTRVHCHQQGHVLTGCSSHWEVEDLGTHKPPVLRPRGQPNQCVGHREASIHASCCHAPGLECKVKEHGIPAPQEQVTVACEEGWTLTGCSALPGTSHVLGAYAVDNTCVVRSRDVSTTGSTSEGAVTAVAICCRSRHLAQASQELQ

Consider `CCCCCCCCCC(=O)N[C@H](C(=O)N[C@@H](Cc1ccccc1)C(=O)N[C@H](C)C(=O)N[C@@H](CCC(N)=O)C(O)C(F)(F)F)C(C)C` (single isomer, unassigned) [Example 60], for which the “FACS-LDLR (% DMSO Cnt)” value in the assay on cell surface LDLR came out at 138 ± 8 % DMSO Cnt. For the same compound, the “Secretion Inhibition (% Activity)” value at WT PCSK9(+V5) is given as 73%.
Taken in the same sequence, the figures for `CC(C)[C@H](NC(=O)c1ccc(-c2ccccc2)cc1)C(=O)N[C@@H](Cc1ccccc1)C(=O)N[C@@H](C)C(=O)NC(CCC(N)=O)C(O)C(F)(F)F` (stereo partly drawn) [Example 24, N-((2S)-1-(((2S)-1-(((2S)-1-((6-Amino-1,1,1-trifluoro-2-hydroxy-6-oxohexan-3-yl)amino)-1-oxopropan-2-yl)amino)-1-oxo-3-phenylpropan-2-yl)amino)-3-methyl-1-oxobutan-2-yl)-[1,1′-biphenyl]-4-carboxamide] were 116 ± 5 % DMSO Cnt and 88%.
The like results for `CC(C)[C@H](NC(=O)c1ccc(-c2ccc(F)cc2)cc1)C(=O)N[C@@H](Cc1ccccc1)C(=O)N[C@@H](C)C(=O)NC(CCC(N)=O)C(O)C(F)(F)F` (stereo partly drawn) [Example 52, N-((2S)-1-(((2S)-1-(((2S)-1-((6-Amino-1,1,1-trifluoro-2-hydroxy-6-oxohexan-3-yl)amino)-1-oxopropan-2-yl)amino)-1-oxo-3-phenylpropan-2-yl)amino)-3-methyl-1-oxobutan-2-yl)-4′-fluoro-[1,1′-biphenyl]-4-carboxamide] were, in that order, 138 ± 20 % DMSO Cnt and 79%.
The like results for `CSCC[C@H](NC(=O)c1ccc(-c2ccccc2)cc1)C(=O)N[C@@H](Cc1ccccc1)C(=O)N[C@@H](C)C(=O)NC(CCC(N)=O)C(O)C(F)(F)F` (stereo partly drawn) [Example 75, N-((5S,8S,11S)-17-amino-8-benzyl-11-methyl-6,9,12,17-tetraoxo-14-(2,2,2-trifluoro-1-hydroxyethyl)-2-thia-7,10,13-triazaheptadecan-5-yl)-[1,1′-biphenyl]-4-carboxamide] were, in that order, 174 ± 41 % DMSO Cnt and 100%.
Take `CCCCCCCCCC(=O)N[C@H](C(=O)N[C@@H](Cc1ccccc1)C(=O)N[C@@H](Cc1ccccc1)C(=O)NC(CCC(N)=O)C(O)C(F)(F)F)C(C)C` (stereo partly drawn) [Example 59, N-((2S)-1-(((2S)-1-(((2S)-1-((6-Amino-1,1,1-trifluoro-2-hydroxy-6-oxohexan-3-yl)amino)-1-oxo-3-phenylpropan-2-yl)amino)-1-oxo-3-phenylpropan-2-yl)amino)-3-methyl-1-oxobutan-2-yl)decanamide]: the “FACS-LDLR (% DMSO Cnt)” value in the assay on cell surface LDLR was found to be 265 ± 35 % DMSO Cnt. Further, the “Secretion Inhibition (% Activity)” value at WT PCSK9(+V5) stood at 82%.
The like results for `CC(C)[C@H](NC(=O)c1ccc(C2(C(F)(F)F)N=N2)cc1)C(=O)N[C@@H](Cc1ccccc1)C(=O)N[C@@H](C)C(=O)NC(CCC(N)=O)C(O)C(F)(F)F` (stereo partly drawn) [Example 29, N-((2S)-1-(((2S)-1-(((2S)-1-((6-Amino-1,1,1-trifluoro-2-hydroxy-6-oxohexan-3-yl)amino)-1-oxopropan-2-yl)amino)-1-oxo-3-phenylpropan-2-yl)amino)-3-methyl-1-oxobutan-2-yl)-4-(3-(trifluoromethyl)-3H-diazirin-3-yl)benzamide] were, in that order, 233 ± 50 % DMSO Cnt and 83%.
For the compound `CCCCCCCCCC(=O)N[C@H](C(=O)N[C@@H](Cc1ccccc1)C(=O)N[C@H](C(=O)NC(CCC(N)=O)C(O)C(F)(F)F)C(C)C)C(C)C` (stereo partly drawn) [Example 58, N-((2S)-1-(((2S)-1-(((2S)-1-((6-amino-1,1,1-trifluoro-2-hydroxy-6-oxohexan-3-yl)amino)-3-methyl-1-oxobutan-2-yl)amino)-1-oxo-3-phenylpropan-2-yl)amino)-3-methyl-1-oxobutan-2-yl)decanamide], in the assay on cell surface LDLR, the “FACS-LDLR (% DMSO Cnt)” value is reported as 166 ± 28 % DMSO Cnt. The “Secretion Inhibition (% Activity)” value at WT PCSK9(+V5) is given as 81%.
As for `CC(C)[C@H](NC(=O)c1ccc(-c2ccccc2)cc1)C(=O)N[C@@H](Cc1ccccc1)C(=O)NC1(C(=O)N[C@@H](CCC(N)=O)C(O)C(F)(F)F)CCC1` (single isomer, unassigned) [Example 66], the “FACS-LDLR (% DMSO Cnt)” value in the assay with cell surface LDLR was determined as 122 ± 11 % DMSO Cnt. Besides, the “Secretion Inhibition (% Activity)” value at WT PCSK9(+V5) is given as 92%.
Taken in the same sequence, the figures for `CC(C)[C@H](NC(=O)c1ccc(-c2ccccc2)cc1)C(=O)N[C@H](Cc1ccccc1)C(=O)N[C@@H](C)C(=O)NC(CCC(N)=O)C(O)C(F)(F)F` (stereo partly drawn) [Example 70, N-((2S)-1-(((2R)-1-(((2S)-1-((6-Amino-1,1,1-trifluoro-2-hydroxy-6-oxohexan-3-yl)amino)-1-oxopropan-2-yl)amino)-1-oxo-3-phenylpropan-2-yl)amino)-3-methyl-1-oxobutan-2-yl)-[1,1′-biphenyl]-4-carboxamide] were 118 ± 18 % DMSO Cnt and 74%.
